Assay results: patent US7960408B2, “Quinolinyl and benzothiazolyl modulators” (Amgen Inc., priority 2000, dated 2011)

molecular target: T1, PPARγ (Homo sapiens, UniProt P37231); test: PPARγ ligand binding assay utilizing [3H]-BRL 49653 as the radioligand; conditions: concentration required to reduce by 50% the specific binding of [3H]-BRL 49653
T1 construct: made in house
T1 sequence (P37231 1-505): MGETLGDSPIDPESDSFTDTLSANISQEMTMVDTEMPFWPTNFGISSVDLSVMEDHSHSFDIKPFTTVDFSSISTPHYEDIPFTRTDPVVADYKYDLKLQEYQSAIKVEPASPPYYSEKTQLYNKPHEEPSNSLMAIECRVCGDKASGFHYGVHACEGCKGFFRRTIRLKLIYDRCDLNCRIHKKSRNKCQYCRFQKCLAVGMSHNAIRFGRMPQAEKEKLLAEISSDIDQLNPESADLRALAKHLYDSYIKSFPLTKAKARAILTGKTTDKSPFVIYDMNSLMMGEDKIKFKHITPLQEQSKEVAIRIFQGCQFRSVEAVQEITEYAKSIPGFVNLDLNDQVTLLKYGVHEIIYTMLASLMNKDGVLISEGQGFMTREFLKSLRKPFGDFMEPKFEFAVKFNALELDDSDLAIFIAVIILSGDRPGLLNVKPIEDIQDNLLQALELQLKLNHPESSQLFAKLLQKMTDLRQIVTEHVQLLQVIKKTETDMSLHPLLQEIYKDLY
Source text: The compounds of the present invention can be evaluated for modulation of the PPARγ receptor using assays such as those described in Jiang, et al., Nature 391:82-86 (1998), Ricote, et al., Nature 391:79-82 (1998) and Lehmann, et al., J. Biol. Chem. 270(12): 12953-12956 (1995). Alternatively, the compounds can be evaluated for their ability to displace radiolabeled BRL 49653 from a PPARγ-GST fusion protein as follows:
PPARγ-GST fusion protein (prepared according to standard procedures), [^3H]—BRL 49653 having 50 Ci/mmol specific activity, Polyfiltronics Unifilter 350 filtration plate and glutathione-Sepharose® beads (from Pharmacia: washed twice with 10× binding buffer in which BSA and DTI can be left out).
Binding buffer (10 mM Tris-HCl, pH 8.0, 50 mM KCI, 10 mM DTT, 0.02% BSA and 0.01% NP-40) is added in 80-μL amounts to the wells of the filtration plate. The test compound is then added in 10 μL of DMSO. The PPARγ-GST fusion protein and radiolabeled BRL compound are premixed in binding buffer containing 10 mM DTT and added in 10-μL amounts to the wells of the plate to provide final concentrations of 1 μg/well of PPARγ-GST fusion protein and 10 nM [^3H]—BRL 49653 compound. The plate is incubated for 15 min. Glutathione-agarose bead is added in 50 μL of binding buffer, and the plate is vigorously shaken for one hour. The plate is washed four times with 200 μL/well of binding buffer (without BSA and DTT). The bottom of the plate is sealed and 200 μL/well of scintillation cocktail is added. The top of the plate is then sealed and the radioactivity is determined.
IC50 values are defined as the concentration of test compounds required to reduce by 50% the specific binding of [^3H]—BRL 49653 and are represented by (+) <30 μM; (++) <10 μM; (+++) <1 μM.

| IC50 [nM] | Structure (SMILES) |
| --- | --- |
| < 1000 | N#Cc1ccc2sc(Oc3cc(Cl)cc(NS(=O)(=O)c4ccc(Cl)cc4Cl)c3)nc2c1 [Compound 287, 2,4-Dichloro-N-[3-chloro-5-(5-cyano-benzothiazol-2-yloxy)-phenyl]-benzenesulfonamide] |
| < 1000 | O=[N+]([O-])c1ccc2nc(Oc3ccc(NS(=O)(=O)c4ccc(C(F)(F)F)cc4Cl)cc3Cl)sc2c1 [Compound 442, 2-Chloro-N-[3-chloro-4-(6-nitro-benzothiazol-2-yloxy)-phenyl]-4-trifluoromethyl-benzenesulfonamide] |
| < 1000 | CCOC(=O)c1ccc2nc(Oc3cc(Cl)cc(NS(=O)(=O)c4ccc(C(F)(F)F)cc4Cl)c3)sc2c1 [Compound 310, 2-[3-Chloro-5-(2-chloro-4-trifluoromethyl-benzenesulfonylamino)-phenoxy]-benzothiazole-6-carboxylic acid ethyl ester] |
| < 1000 | COc1cccc2sc(Oc3cc(Cl)cc(NS(=O)(=O)c4cc(C)c(Cl)cc4Cl)c3)nc12 [Compound 298, 2,4-Dichloro-N-[3-chloro-5-(4-methoxy-benzothiazol-2-yloxy)-phenyl]-5-methyl-benzenesulfonamide] |
| < 1000 | COc1ccc2nc(Oc3cc(Cl)cc(NS(=O)(=O)c4ccc(Cl)cc4Cl)c3)sc2c1 [Compound 308, 2,4-Dichloro-N-[3-chloro-5-(6-methoxy-benzothiazol-2-yloxy)-phenyl]-benzenesulfonamide] |
| 1000 to 10000 | O=S(=O)(Nc1cc(Cl)c([S+]([O-])c2cnc3ccccc3c2)c(Cl)c1)c1ccccc1 (centres unmarked) [Compound 5.3] |
| < 1000 | O=S(=O)(Nc1cc(Cl)cc(Oc2nc3ccc(Cl)cc3s2)c1)c1ccc(C(F)(F)F)cc1Cl [Compound 302, 2-Chloro-N-[3-chloro-5-(6-chloro-benzothiazol-2-yloxy)-phenyl]-4-trifluoromethyl-benzenesulfonamide] |
| < 1000 | O=S(=O)(Nc1cc(Cl)cc(Oc2nc3ccc(Cl)cc3s2)c1)c1ccc(Cl)cc1Cl [Compound 303, 2,4-Dichloro-N-[3-chloro-5-(6-chloro-benzothiazol-2-yloxy)-phenyl]-benzenesulfonamide] |
| < 1000 | O=S(=O)(Nc1cc(Cl)cc(Oc2nc3cc(-c4nnn[nH]4)ccc3s2)c1)c1ccc(C(F)(F)F)cc1Cl [Compound 289, 2-Chloro-N-{3-chloro-5-[5-(1H-tetrazol-5-yl)-benzothiazol-2-yloxy]-phenyl}-4-trifluoromethyl-benzenesulfonamide] |
| < 1000 | Cc1cc(S(=O)(=O)Nc2cc(Cl)cc(Oc3nc4ccc(F)cc4s3)c2)c(Cl)cc1Cl [Compound 306, 2,4-Dichloro-N-[3-chloro-5-(6-fluoro-benzothiazol-2-yloxy)-phenyl]-5-methyl-benzenesulfonamide] |

The remaining lines, values behind:

| Structure (SMILES) | IC50 [nM] |
| --- | --- |
| Cc1cccc2sc(Oc3cc(Cl)cc(NS(=O)(=O)c4ccc(C(F)(F)F)cc4Cl)c3)nc12 [Compound 293, 2-Chloro-N-[3-chloro-5-(4-methyl-benzothiazol-2-yloxy)-phenyl]-4-trifluoromethyl-benzenesulfonamide] | < 1000 |
| Cc1cccc2sc(Oc3ccc(NS(=O)(=O)c4ccc(C(F)(F)F)cc4Cl)cc3Cl)nc12 [Compound 504, 2-Chloro-N-[3-chloro-4-(4-methyl-benzothiazol-2-oxy)-phenyl]-4-trifluoromethylbenzenesulfonamide] | 10000 to 30000 |
| O=[N+]([O-])c1ccc2nc(Oc3c(Cl)cc(NS(=O)(=O)c4ccc(C(F)(F)F)cc4Cl)cc3Cl)sc2c1 [Compound 438, 2-Chloro-N-[3,5-dichloro-4-(6-nitro-benzothiazol-2-yloxy)-phenyl]-4-trifluoromethyl-benzenesulfonamide] | < 1000 |
| COc1cccc2sc(Oc3c(Cl)cc(NS(=O)(=O)c4ccc(C(F)(F)F)cc4Cl)cc3Cl)nc12 [Compound 427, 2-Chloro-N-[3,5-dichloro-4-(4-methoxy-benzothiazol-2-yloxy)-phenyl]-4-trifluoromethyl-benzenesulfonamide] | < 1000 |
| Cc1cc(S(=O)(=O)Nc2cc(F)c(Oc3cnc4ccccc4c3)c(Cl)c2)c(Cl)cc1Cl [Compound 50, N-[3-Chloro-5-fluoro-4-(quinolin-3-yloxy)phenyl]-2,4-dichloro-5-methyl-benzenesulfonamide] | < 1000 |
| CS(=O)(=O)c1ccc2nc(Oc3ccc(NS(=O)(=O)c4ccc(C(F)(F)F)cc4Cl)cc3Cl)sc2c1 [Compound 445, 2-Chloro-N-[3-chloro-4-(6-methanesulfonyl-benzothiazol-2-yloxy)-phenyl]-4-trifluoromethyl-benzenesulfonamide] | < 1000 |
| COC(=O)c1ccc2ncc(Oc3c(Cl)cc(NS(=O)(=O)c4ccc(Cl)cc4Cl)cc3Cl)cc2c1 [Compound 45, 3-[2,6-Dichloro-4-(2,4-dichloro-benzenesulfonylamino)-phenoxy]-quinoline-6-carboxylic acid methyl ester] | < 1000 |
| O=S(=O)(Nc1cc(Cl)c(Nc2nc3ccc(Cl)cc3s2)c(Cl)c1)c1ccc(Cl)cc1Cl [Compound 71] | < 1000 |
| O=S(=O)(Nc1cc(Cl)cc(Oc2nc3cc(Cl)ccc3s2)c1)c1ccc(C(F)(F)F)cc1Cl [Compound 283, 2-Chloro-N-[3-chloro-5-(5-chloro-benzothiazol-2-yloxy)-phenyl]-4-trifluoromethyl-benzenesulfonamide] | 1000 to 10000 |
| CC(C)(C)c1ccc(S(=O)(=O)Nc2cc(Cl)cc(Oc3nc4cc(Cl)ccc4s3)c2)cc1 [Compound 501, 4-tert-Butyl-N-[3-chloro-5-(5-chloro-benzothiazole-2-yloxy)]-benzenesulfonamide] | > 30000 |
| O=S(=O)(Nc1cc(Oc2nc3cc(Cl)ccc3s2)cc(Oc2nc3cc(Cl)ccc3s2)c1)c1ccc(C(F)(F)F)cc1Cl [Compound 322, N-[3,5-Bis-(5-chloro-benzothiazol-2-yloxy)-phenyl]-2-chloro-4-trifluoromethyl-benzenesulfonamide] | 1000 to 10000 |
| COc1ccc2nc(Oc3cc(Cl)cc(NS(=O)(=O)c4ccc(C(F)(F)F)cc4Cl)c3)sc2c1 [Compound 307, 2-Chloro-N-[3-chloro-5-(6-methoxy-benzothiazol-2-yloxy)-phenyl]-4-trifluoromethyl-benzenesulfonamide] | 1000 to 10000 |
| O=S(=O)(Nc1cc(Cl)c(Cc2ccc3ccccc3n2)c(Cl)c1)c1ccc(Cl)cc1Cl [Compound 225, 2,4-Dichloro-N-(3,5-dichloro-4-quinolin-2-ylmethyl-phenyl)-benzenesulfonamide] | < 1000 |
| CS(=O)(=O)Nc1ccc2nc(Oc3c(Cl)cc(NS(=O)(=O)c4ccc(C(F)(F)F)cc4Cl)cc3Cl)sc2c1 [Compound 440, 2-Chloro-N-[3,5-dichloro-4-(6-methanesulfonylamino-benzothiazol-2-yloxy)-phenyl]-4-trifluoromethyl-benzenesulfonamide] | < 1000 |
| Cc1ccc2nc(Oc3cc(Cl)cc(NS(=O)(=O)c4ccc(C(F)(F)F)cc4Cl)c3)sc2c1 [Compound 299, 2-Chloro-N-[3-chloro-5-(6-methyl-benzothiazol-2-yloxy)-phenyl]-4-trifluoromethyl-benzenesulfonamide] | < 1000 |
| COC(=O)c1cccc2cc(Oc3c(Cl)cc(NS(=O)(=O)c4ccc(Cl)cc4Cl)cc3Cl)cnc12 [Compound 46, 3-[2,6-Dichloro-4-(2,4-dichloro-benzenesulfonylamino)-phenoxy]-quinoline-8-carboxylic acid methyl ester] | < 1000 |
| O=S(=O)(Nc1cc(Cl)c(Cc2cnc3ccccc3c2)c(Cl)c1)c1ccc(C(F)(F)F)cc1Cl [Compound 231, 2-Chloro-N-(3,5-dichloro-4-quinolin-3-ylmethyl-phenyl)-4-trifluoromethyl-benzenesulfonamide] | < 1000 |
| O=S(=O)(Nc1cc(Cl)cc(Oc2nc3ccc(F)cc3s2)c1)c1ccc(C(F)(F)F)cc1Cl [Compound 304, 2-Chloro-N-[3-chloro-5-(6-fluoro-benzothiazol-2-yloxy)-phenyl]-4-trifluoromethyl-benzenesulfonamide] | < 1000 |
| COc1ccc2nc(Oc3cc(Cl)cc(NS(=O)(=O)c4cc(C)c(Cl)cc4Cl)c3)sc2c1 [Compound 309, 2,4-Dichloro-N-[3-chloro-5-(6-methoxy-benzothiazol-2-yloxy)-phenyl]-5-methyl-benzenesulfonamide] | < 1000 |
